# Experimental data published in patent US7241791B2, “Substituted 4-(indazol-3-yl)phenols” (Wyeth, priority 2002, dated 2007).
# What was measured:
# human ERα [1] = target: T1, human ERα (Homo sapiens, UniProt P03372); experiment: Creatine kinase expression (ER/CK) in Ad5-wt-hERα infected HAECT-1 cells; details: for ER/CK % E2: efficacy relative to the maximal stimulation observed with E2
# T1 sequence (P03372 1-595): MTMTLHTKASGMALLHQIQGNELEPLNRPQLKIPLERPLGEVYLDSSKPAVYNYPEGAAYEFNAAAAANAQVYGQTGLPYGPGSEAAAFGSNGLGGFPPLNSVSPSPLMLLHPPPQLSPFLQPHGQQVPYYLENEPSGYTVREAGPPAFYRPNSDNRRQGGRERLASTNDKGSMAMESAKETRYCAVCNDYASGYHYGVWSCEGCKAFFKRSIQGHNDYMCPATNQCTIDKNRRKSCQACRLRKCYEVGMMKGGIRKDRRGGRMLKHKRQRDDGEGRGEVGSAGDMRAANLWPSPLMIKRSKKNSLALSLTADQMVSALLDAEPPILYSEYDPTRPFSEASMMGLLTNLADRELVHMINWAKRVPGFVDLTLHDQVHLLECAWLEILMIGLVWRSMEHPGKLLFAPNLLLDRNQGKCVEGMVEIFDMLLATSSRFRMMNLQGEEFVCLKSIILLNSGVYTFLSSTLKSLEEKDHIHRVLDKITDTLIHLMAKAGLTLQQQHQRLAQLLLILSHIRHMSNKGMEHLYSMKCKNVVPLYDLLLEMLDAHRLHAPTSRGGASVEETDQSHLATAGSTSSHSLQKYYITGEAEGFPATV
# human ERα [2] = target: T1, human ERα; experiment: NF-κB luciferase reporter (ER/NF-KB-luc) in Ad5-wt-hERα infected HAECT-1 cells; details: for IC50: ER/NF-KB-luc IC50, Ad5-wt-ER infected HAECT-1 cells, IL-1β; for Emax: HAECT1, read-out: ER/NF-KB-luc % E2, efficacy relative to the maximal inhibition observed with E2
Compound,EC50 (human ERα [1]) [nM],ER/CK % E2 (human ERα [1]) [% E2],IC50 (human ERα [2]) [nM],Emax (human ERα [2]) [%]
"CC(C)(C)OC(=O)NCC(=O)NCC(=O)Oc1ccc(-c2nn(C3CCCC3)c3c(F)cccc23)cc1 [Example 116, 4-(1-cyclopentyl-7-fluoro-1H-indazol-3-yl)phenyl N-(tert-butoxycarbonyl)glycylglycinate]",229,25,140,63
"CC(C)(C)OC(=O)N[C@@H](CCC(=O)Oc1ccc(-c2nn(C3CCCC3)c3c(F)cccc23)cc1)C(=O)OC(C)(C)C [Example 117, 1-tert-butyl 5-[4-(1-cyclopentyl-7-fluoro-1H-indazol-3-yl)phenyl] N-(tert-butoxycarbonyl)-L-glutamate]",169,22,150,52
"Oc1ccc(-c2n[nH]c3ccccc23)cc1 [Example 130, 4-(H-indazol-3-yl)phenol]",205,54,62,97
"OCCn1nc(-c2ccc(O)cc2)c2ccccc21 [Example 158, 4-[1-(2-hydroxyethyl)-1H-indazol-3-yl]phenol]",1120,59,515,106
"Cn1nc(-c2ccc(O)cc2)c2cc(F)ccc21 [Example 168, 4-(5-fluoro-1-methyl-1H-indazol-3-yl)phenol]",1370,86,347,95
"Cn1nc(-c2ccc(O)cc2O)c2cccc(Cl)c21 [Example 170, 4-(7-chloro-1-methyl-1H-indazol-3-yl)benzene-1,3-diol]",827,28,276,77
"Cn1nc(-c2ccc(O)cc2)c2cc(C(F)(F)F)ccc21 [Example 171, 4-[1-methyl-5-(trifluoromethyl)-1H-indazol-3-yl]phenol]",2380,42,582,95
"Cn1nc(-c2ccc(O)c(O)c2)c2cccc(C(F)(F)F)c21 [Example 176, 4-[1-methyl-7-(trifluoromethyl)-1H-indazol-3-yl]benzene-1,2-diol]",1040,70,587,111
"Oc1ccc(-c2nn(Cc3ccccc3)c3ccc(C(F)(F)F)cc23)c(O)c1 [Example 182, 4-[1-benzyl-5-(trifluoromethyl)-1H-indazol-3-yl]benzene-1,3-diol]",2930,71,443,121
"CCCCn1nc(-c2ccc(O)cc2)c2ccc(Cl)cc21 [Example 199, 4-(1-butyl-6-chloro-1H-indazol-3-yl)phenol]",1260,42,487,100
"Cn1nc(-c2ccc(O)cc2)c2cccc(F)c21 [Example 200, 4-(7-fluoro-1-methyl-1H-indazol-3-yl)phenol]",1480,58,435,86
"Oc1ccc(-c2n[nH]c3c(F)cccc23)cc1 [Example 203, 4-(7-fluoro-1H-indazol-3-yl)phenol]",1070,48,196,117
"CCCCn1nc(-c2ccc(O)cc2)c2cc(C(F)(F)F)ccc21 [Example 206, 4-[1-butyl-5-(trifluoromethyl)-1H-indazol-3-yl]phenol]",902,27,473,84
"CCCCn1nc(-c2ccc(O)cc2)c2cccc(F)c21 [Example 220, 4-(1-butyl-7-fluoro-1H-indazol-3-yl)phenol]",2340,48,112,84
"CC(C)n1nc(-c2ccc(O)cc2)c2cccc(-c3ccsc3)c21 [Example 226, 4-(1-isopropyl-7-thien-3-yl-1H-indazol-3-yl)phenol]",309,20,32,87
"CC(C)n1nc(-c2ccc(O)cc2)c2cccc(-c3ccc(O)c(O)c3)c21 [Example 231, 4-[3-(4-hydroxyphenyl)-1-isopropyl-1H-indazol-7-yl]benzene-1,2-diol]",3250,32,382,78
"Cc1ccccc1-c1cccc2c(-c3ccc(O)cc3)nn(C(C)C)c12 [Example 235, 4-[1-isopropyl-7-(2-methylphenyl)-1H-indazol-3-yl]phenol]",223,35,16,74

# Continued by falling EC50 (human ERα [1]), values first:
EC50 (human ERα [1]) [nM],ER/CK % E2 (human ERα [1]) [% E2],IC50 (human ERα [2]) [nM],Emax (human ERα [2]) [%],Compound
2930,48,431,135,"Oc1ccc(-c2nn(Cc3ccccc3)c3ccccc23)c(O)c1 [Example 183, 4-(1-benzyl-1H-indazol-3-yl)benzene-1,3-diol]"
2450,31,751,90,"OCCn1nc(-c2ccc(O)cc2)c2cccc(F)c21 [Example 188, 4-[7-fluoro-1-(2-hydroxyethyl)-1H-indazol-3-yl]phenol]"
1930,36,897,76,"Oc1ccc(-c2n[nH]c3cc(Cl)ccc23)cc1 [Example 134, 4-(6-chloro-1H-indazol-3-yl)phenol]"
1840,68,539,160,"Oc1ccc(-c2n[nH]c3ccccc23)cc1O [Example 202, 4-(1H-indazol-3-yl)benzene-1,2-diol]"
1320,92,349,95,"Cn1nc(-c2ccc(O)cc2O)c2cc(F)ccc21 [Example 172, 4-(5-fluoro-1-methyl-1H-indazol-3-yl)benzene-1,3-di]"
1000,30,303,100,"CCCCn1nc(-c2ccc(O)cc2)c2ccc(C(F)(F)F)cc21 [Example 198, 4-[1-butyl-6-(trifluoromethyl)-1H-indazol-3-yl]phenol]"
974,32,158,54,"Oc1ccc(-c2nn(C3CCCC3)c3c(-c4ccc(O)c(O)c4)cccc23)cc1 [Example 240, 4-[1-cyclopentyl-3-(4-hydroxyphenyl)-1H-indazol-7-yl]benzene-1,2-diol]"
608,51,371,87,"OCCn1nc(-c2ccc(O)cc2O)c2cc(F)ccc21 [Example 192, 4-[5-fluoro-1-(2-hydroxyethyl)-1H-indazol-3-yl]benzene-1,3-diol]"
588,29,311,83,"Cn1nc(-c2ccc(O)cc2O)c2cccc(C(F)(F)F)c21 [Example 167, 4-[1-methyl-7-(trifluoromethyl)-1H-indazol-3-yl]benzene-1,3-diol]"
490,27,43,76,"CSc1ccc(-c2cccc3c(-c4ccc(O)cc4C)nn(C4CCCC4)c23)cc1 [Example 257, 4-{1-cyclopentyl-7-[4-(methylthio)phenyl]-1H-indazol-3-yl}-3-methylphenol]"
279,21,56,70,"CC(C)n1nc(-c2ccc(O)cc2)c2cccc(-c3cccs3)c21 [Example 227, 4-(1-isopropyl-7-thien-2-yl-1H-indazol-3-yl)phenol]"
208,33,33,48,"Oc1ccc(-c2nn(C3CCCC3)c3c(-c4ccco4)cccc23)cc1 [Example 244, 4-[1-cyclopentyl-7-(2-furyl)-1H-indazol-3-yl]phenol]"
143,38,18,73,"Cc1cc(O)ccc1-c1nn(C2CCCC2)c2c(-c3ccc(O)c(O)c3)cccc12 [Example 259, 4-[1-cyclopentyl-3-(4-hydroxy-2-methylphenyl)-1H-indazol-7-yl]benzene-1,2-diol]"
136,28,11,82,"Oc1ccc(-c2nn(C3CCCC3)c3c(-c4ccccc4)cccc23)cc1 [Example 246, 4-(1-cyclopentyl-7-phenyl-1H-indazol-3-yl)phenol]"
112,,,83,"CC(C)n1nc(-c2ccc(O)cc2)c2cccc(-c3ccccc3)c21 [Example 236, 4-(1-isopropyl-7-phenyl-1H-indazol-3-yl)phenol]"
17,42,12,70,"Cc1cc(O)ccc1-c1nn(C(C)C)c2c(-c3ccsc3)cccc12 [Example 247, 4-(1-isopropyl-7-thien-3-yl-1H-indazol-3-yl)-3-methylphenol]"
